Assay results from patent US8466088B2, “Herbicidal compositions containing benzoylpyrazole compounds” (Ishihara Sangyo Kaisha, Ltd., priority 2007, dated 2013).
Like-named read-outs stand apart in the source and are kept apart here.

Legend:
[1] = test system: velvetleaf; assay: Example 1: pot test, foliar treatment, visually observed growth inhibition of velvetleaf; type: in vivo, Abutilon theophrasti MEDIC.
Description: (§1) When the herbicidal activity in a case where two active ingredients are combined, is larger than the simple sum of the respective herbicidal activities of the two active ingredients (the expected activity), it is called a synergistic effect. The activity expected by the combination of two active ingredients can be calculated as follows (Colby S. R., “Weed”, vol. 15, p. 20-22, 1967). E=α+β−(α×β+100) where
(§2) α: growth inhibition rate when treated with x (g/ha) of herbicide X,
(§3) β: growth inhibition rate when treated with y (g/ha) of herbicide Y,
(§4) E: growth inhibition rate expected when treated with x (g/ha) of herbicide X and y (g/ha) of herbicide Y.
(§5) That is, when the actual growth inhibition rate (measured value) is larger than the growth inhibition rate by the above calculation (calculated value), the activity by the combination can be regarded as showing a synergistic effect.
(§6) Upland field soil was put into a 1/1,000,000 hectare pot, and seeds of various plants were sown. When the respective plants reached predetermined leaf stage, herbicidal compositions in predetermined amounts were diluted with water in an amount corresponding to 300 L/ha and applied for foliar treatment by a small sprayer.
(§7) Further, in accordance with the above Colby's formula, the growth inhibition rate (calculated value) was calculated. In Tables, with respect to the compound A, Compound Nos. in Table 1 or 3 are described, and with respect to other herbicidal compounds, common names are described.

[2] = test system: crabgrass; assay: Example 1: pot test, foliar treatment, visually observed growth inhibition of crabgrass; type: in vivo
Description: as §1, §2, §3, §4, §5, §6, §7

[3] = Digitaria sanguinalis, foliar, 3.0 to 4.3 leaf stage, 21st day after application, 15 g/ha, read-out: Growth inhibition rate (%) of crabgrass, Measured value
[4] = Digitaria sanguinalis, foliar, 3.0 to 4.3 leaf stage, 21st day after application, read-out: Growth inhibition rate (%) of crabgrass, Measured value
[5] = Digitaria sanguinalis, foliar, 3.2 to 4.2 leaf stage, 21st day after application, read-out: Growth inhibition rate (%) of crabgrass, Measured value
[6] = Abutilon theophrasti, foliar, 2.0 to 2.8 leaf stage, 21st day after application, read-out: Growth inhibition rate (%) of velvetleaf, Measured value
[7] = Abutilon theophrasti, foliar, 2.0 to 2.8 leaf stage, 21st day after application, 15 g/ha, read-out: Growth inhibition rate (%) of velvetleaf, Measured value

SMILES: COCC(C)N(C(=O)CCl)c1c(C)csc1C (centres unmarked) [Dimethenamid]
- inhibition at 125 g/ha ([1]; Abutilon theophrasti, foliar, 2.0 to 2.5 leaf stage, 21st day after application, 125 g/ha, read-out: Growth inhibition rate (%) of velvetleaf, Measured value): 0%

SMILES: COc1nc(C)nc(NC(=O)NS(=O)(=O)c2ccccc2CCC(F)(F)F)n1 [Prosulfuron]
- inhibition at 15 g/ha [2, 3]: 0%
- inhibition at 30 g/ha [2, 4]: 0%
- inhibition at 15 g/ha ([2]; Digitaria sanguinalis, foliar, 3.2 to 4.1 leaf stage, 14th day after application, 15 g/ha, read-out: Growth inhibition rate (%) of crabgrass, Measured value): 0%
- inhibition at 30 g/ha ([2]; Digitaria sanguinalis, foliar, 3.2 to 4.1 leaf stage, 14th day after application, read-out: Growth inhibition rate (%) of crabgrass, Measured value): 10%
- inhibition at 15 g/ha ([2]; Digitaria sanguinalis, foliar, 3.2 to 4.1 leaf stage, 21st day after application, 15 g/ha, read-out: Growth inhibition rate (%) of crabgrass, Measured value): 0%
- inhibition at 5 g/ha ([2]; Digitaria sanguinalis, foliar, 3.2 to 4.3 leaf stage, 14th day after application, 5 g/ha, read-out: Growth inhibition rate (%) of crabgrass, Measured value): 0%
- inhibition at 10 g/ha ([2]; Digitaria sanguinalis, foliar, 3.2 to 4.3 leaf stage, 14th day after application, 10 g/ha, read-out: Growth inhibition rate (%) of crabgrass, Measured value): 0%
- inhibition at 30 g/ha ([1]; Abutilon theophrasti, foliar, 3.0 to 4.0 leaf stage, 21st day after application, read-out: Growth inhibition rate (%) of velvetleaf, Measured value): 95%

SMILES: CCOCCN(C(=O)CCl)C(=C(C)C)c1ccccc1 [Pethoxamid]
- Growth inhibition rate (%) of crabgrass, Measured value ([2]; 3.5 to 5.0 leaf stage, 22nd day after application, 100 g/ha): 0%
- Growth inhibition rate (%) of velvetleaf, Measured value ([1]; 3.5 to 4.0 leaf stage, 14th day after application, 200 g/ha): 60%

SMILES: CCOCc1c(S(C)(=O)=O)ccc(C(=O)c2cnn(C)c2O)c1C [No. 2-41]
- Growth inhibition rate (%) of crabgrass, Measured value ([2]; 3.8 to 5.2 leaf stage, 21st day after application, 3.5 g/ha): 35%
- Growth inhibition rate (%) of velvetleaf, Measured value ([1]; 3.2 to 5.0 leaf stage, 14th day after application, 3.5 g/ha): 70%
- Growth inhibition rate (%) of velvetleaf, Measured value ([1]; 3.2 to 5.0 leaf stage, 21st day after application, 3.5 g/ha): 60%

SMILES: CON(C)C(=O)Nc1ccc(Cl)c(Cl)c1 [Linuron]
- inhibition at 250 g/ha ([2]; Digitaria sanguinalis, foliar, 3.5 to 4.2 leaf stage, 14th day after application, read-out: Growth inhibition rate (%) of crabgrass, Measured value): 20%
- inhibition at 500 g/ha ([2]; Digitaria sanguinalis, foliar, 3.5 to 4.2 leaf stage, 14th day after application, 500 g/ha, read-out: Growth inhibition rate (%) of crabgrass, Measured value): 35%
- inhibition at 250 g/ha ([1]; Abutilon theophrasti, foliar, 3.3 to 4.3 leaf stage, 20th day after application, 250 g/ha, read-out: Growth inhibition rate (%) of velvetleaf, Measured value): 55%
- inhibition at 500 g/ha ([1]; Abutilon theophrasti, foliar, 3.3 to 4.3 leaf stage, 20th day after application, 500 g/ha, read-out: Growth inhibition rate (%) of velvetleaf, Measured value): 93%

SMILES: CC(C)N1C(=O)c2ccccc2NS1(=O)=O [Bentazone-sodium]
- inhibition at 200 g/ha ([2]; Digitaria sanguinalis, foliar, 3.2 to 4.1 leaf stage, 21st day after application, read-out: Growth inhibition rate (%) of crabgrass, Measured value): 0%
- inhibition at 200 g/ha ([2]; Digitaria sanguinalis, foliar, 4.1 to 5.3 leaf stage, 14th day after application, read-out: Growth inhibition rate (%) of crabgrass, Measured value): 0%
- inhibition at 150 g/ha ([1]; Abutilon theophrasti, foliar, 2.0 to 2.5 leaf stage, 21st day after application, 150 g/ha, read-out: Growth inhibition rate (%) of velvetleaf, Measured value): 95%
- inhibition at 100 g/ha ([1]; Abutilon theophrasti, foliar, 3.0 to 4.0 leaf stage, 21st day after application, 100 g/ha, read-out: Growth inhibition rate (%) of velvetleaf, Measured value): 0%
- inhibition at 200 g/ha ([1]; Abutilon theophrasti, foliar, 3.0 to 4.0 leaf stage, 21st day after application, 200 g/ha, read-out: Growth inhibition rate (%) of velvetleaf, Measured value): 20%

SMILES: CCSC(=O)Oc1c(C(=O)c2ccc(S(C)(=O)=O)c(C(=O)OC)c2C)cnn1C [No. 1, 5-(ethylthio)carbonyloxy-1-methylpyrazol-4-yl 3-(methoxycarbonyl)-2-methyl-4-(methylsulfonyl)phenyl ketone]
- inhibition at 15 g/ha ([2]; Digitaria sanguinalis, foliar, 3.2 to 4.3 leaf stage, on the 22nd day after application, foliar, active ingredient amount 15 g/ha, read-out: Growth inhibition rate (%) of crabgrass, Measured value): 65%

SMILES: CP(=O)(O)CCC(N)C(=O)O (centres unmarked) [Glufosinate-ammonium]
- inhibition at 100 g/ha ([1]; Abutilon theophrasti, foliar, read-out: Growth inhibition rate (%) of velvetleaf, Measured value, 3.3 to 4.3 leaf stage, 20th day after application, 100 g/ha): 0%
- inhibition at 200 g/ha ([1]; Abutilon theophrasti, foliar, read-out: Growth inhibition rate (%) of velvetleaf, Measured value, 3.3 to 4.3 leaf stage, 20th day after application, 200 g/ha): 10%

SMILES: CCC(CC)Nc1c([N+](=O)[O-])cc(C)c(C)c1[N+](=O)[O-] [Pendimethalin]
- inhibition at 100 g/ha ([2]; Digitaria sanguinalis, foliar, 3.5 to 5.0 leaf stage, 22nd day after application, 100 g/ha, read-out: Growth inhibition rate (%) of crabgrass, Measured value): 30%
- inhibition at 200 g/ha ([1]; Abutilon theophrasti, foliar, 3.5 to 4.0 leaf stage, 22nd day after application, 200 g/ha, read-out: Growth inhibition rate (%) of velvetleaf, Measured value): 45%

SMILES: O=C(O)CNCP(=O)([O-])O.[K+] [Glyphosate-potassium]
- Growth inhibition rate (%) of crabgrass, Measured value ([2]; 3.3 to 4.2 leaf stage, 28th day after application, 75 g/ha): 0%

SMILES: CCSC(=O)Oc1c(C(=O)c2ccc(S(C)(=O)=O)c(OCCOC)c2C)cnn1C [No. 55, 5-(ethylthio)carbonyloxy-1-methylpyrazol-4-yl 3-(2-methoxyethoxy)-2-methyl-4-(methylsulfonyl)phenyl ketone]
- Growth inhibition rate (%) of crabgrass, Measured value ([2]; 4.0 to 4.5 leaf stage, 21st day after application, 15 g/ha): 85%
- inhibition at 7 g/ha [2, 4]: 83%
- inhibition at 15 g/ha [2, 3]: 95%
- inhibition at 7 g/ha [2, 5]: 80%
- inhibition at 15 g/ha ([2]; Digitaria sanguinalis, foliar, 3.2 to 4.2 leaf stage, 21st day after application, 15 g/ha, read-out: Growth inhibition rate (%) of crabgrass, Measured value): 98%
- inhibition at 7 g/ha ([2]; Digitaria sanguinalis, foliar, 3.5 to 4.0 leaf stage, 21st day after application, read-out: Growth inhibition rate (%) of crabgrass, Measured value): 95%
- inhibition at 15 g/ha ([2]; Digitaria sanguinalis, foliar, 4.0 to 4.5 leaf stage, 21st day after application, 15 g/ha, read-out: Growth inhibition rate (%) of crabgrass, Measured value): 73%
- Growth inhibition rate (%) of velvetleaf, Measured value ([1]; 3.0 to 3.5 leaf stage, 21st day after application, 15 g/ha): 89%
- inhibition at 7 g/ha ([1]; Abutilon theophrasti, foliar, 2.0 to 2.5 leaf stage, 21st day after application, read-out: Growth inhibition rate (%) of velvetleaf, Measured value): 65%
- inhibition at 7 g/ha [1, 6]: 70%
- inhibition at 15 g/ha [1, 7]: 90%
- inhibition at 15 g/ha ([1]; Abutilon theophrasti, foliar, 3.0 to 3.5 leaf stage, 21st day after application, 15 g/ha, read-out: Growth inhibition rate (%) of velvetleaf, Measured value): 75%

SMILES: COc1nc(NC(=O)NS(=O)(=O)c2ccccc2C(F)(F)F)nc(C(F)(F)F)n1 [Tritosulfuron]
- Growth inhibition rate (%) of crabgrass, Measured value ([2]; 3.2 to 4.2 leaf stage, 21st day after application, 15 g/ha): 0%

SMILES: N.O=C(O)CNCP(=O)(O)O [Glyphosate-ammonium]
- Growth inhibition rate (%) of velvetleaf, Measured value ([1]; 2.6 to 3.3 leaf stage, 20th day after application, 63 g/ha): 0%
- Growth inhibition rate (%) of velvetleaf, Measured value ([1]; 3.0 to 4.0 leaf stage, 21st day after application, 200 g/ha): 0%
- Growth inhibition rate (%) of velvetleaf, Measured value ([1]; 3.2 to 5.0 leaf stage, 14th day after application, 75 g/ha): 0%
- Growth inhibition rate (%) of velvetleaf, Measured value ([1]; 3.5 to 4.1 leaf stage, 14th day after application, 100 g/ha): 25%
- Growth inhibition rate (%) of velvetleaf, Measured value ([1]; 3.5 to 4.1 leaf stage, 14th day after application, 200 g/ha): 50%
- Growth inhibition rate (%) of velvetleaf, Measured value ([1]; 3.5 to 4.1 leaf stage, 20th day after application, 75 g/ha): 0%
- Growth inhibition rate (%) of velvetleaf, Measured value ([1]; 3.5 to 4.1 leaf stage, 20th day after application, 150 g/ha): 0%
- Growth inhibition rate (%) of velvetleaf, Measured value ([1]; 3.5 to 4.3 leaf stage, 21st day after application, 75 g/ha): 0%

SMILES: CCS(=O)(=O)c1cccnc1S(=O)(=O)NC(=O)Nc1nc(OC)cc(OC)n1 [Rimsulfuron]
- inhibition at 10 g/ha ([1]; Abutilon theophrasti, foliar, 3.0 to 4.0 leaf stage, 21st day after application, 10 g/ha, read-out: Growth inhibition rate (%) of velvetleaf, Measured value): 75%
- inhibition at 20 g/ha ([1]; Abutilon theophrasti, foliar, 3.0 to 4.0 leaf stage, 21st day after application, 20 g/ha, read-out: Growth inhibition rate (%) of velvetleaf, Measured value): 95%
- inhibition at 7 g/ha ([1]; Abutilon theophrasti, foliar, 3.2 to 4.3 leaf stage, 21st day after application, read-out: Growth inhibition rate (%) of velvetleaf, Measured value): 50%

SMILES: CSc1nnc(C(C)(C)C)c(=O)n1N [Metribuzin]
- inhibition at 125 g/ha ([2]; Digitaria sanguinalis, foliar, 3.2 to 4.2 leaf stage, 21st day after application, 125 g/ha, read-out: Growth inhibition rate (%) of crabgrass, Measured value): 15%
- inhibition at 250 g/ha [2, 5]: 20%

SMILES: COc1cc(OC)nc(NC(=O)NS(=O)(=O)c2cc(NC=O)ccc2C(=O)N(C)C)n1 [Foramsulfuron]
- inhibition at 15 g/ha [1, 7]: 0%
- inhibition at 30 g/ha [1, 6]: 25%

SMILES: Cn1nc(C(F)(F)F)c(CS(=O)(=O)C2=NOC(C)(C)C2)c1OC(F)F [Pyroxasulfone]
- inhibition at 50 g/ha ([1]; Abutilon theophrasti, foliar, 3.5 to 4.0 leaf stage, 14th day after application, 50 g/ha, read-out: Growth inhibition rate (%) of velvetleaf, Measured value): 40%
- inhibition at 100 g/ha ([1]; Abutilon theophrasti, foliar, 3.5 to 4.0 leaf stage, 14th day after application, 100 g/ha, read-out: Growth inhibition rate (%) of velvetleaf, Measured value): 50%
